How the values were obtained:
[1] = test system: VEGFR2, cMet, PDGFRβ, and IGF1R; conditions: VEGFR2, c-Met, literature; cited from earlier work
Erk1/2 = assay: Western blot of MEC lysates: Erk1/2 phosphorylation; assay type: cell-based, human; conditions: all tested conditions
Experimental: (§1) To investigate the effects of the integrin inhibitor AXT107 on Tie2 signaling, confluent monolayers of microvascular endothelial cells (MECs) on fibronectin-coated dishes were treated with various concentrations of AXT107 followed by exposure to the Tie2 ligands Ang1 or Ang2.
(§2) Human dermal microvascular endothelial cells (Lonza) were maintained at 37° C. and 5% CO2 in EBM-2MV medium (Lonza) and used between passages two through seven. Where applicable, cells were serum starved in EBM-2 medium (Lonza) with no supplements. For FITC-Dextran permeability assays phenol red-free media were used to avoid auto-fluorescence. […]
(§3) For Ang1/2 signaling investigations, cell culture dishes (10 cm diameter) were coated with 5 μg/ml fibronectin (FN1; Sigma-Aldrich, St. Louis, Mo.) for two hours at 37° C. […] Specific proteins were identified by Western blot, using the following primary antibodies: Cell Signaling—phospho-Tie2 (Y992) (Cat #: 4221), Tie2 (Cat #: 7403), phospho-Stat3 (Y705) (Cat #: 4113), Stat3 (Cat #: 4904), phospho-Akt (S473) (Cat #: 4058), Akt (Cat #: 9272), phospho-p44/42 MAPK (T202/Y204) (Cat #: 4370), p44/42 MAPK (Cat #: 4695); BD Transduction Laboratories—β1 integrin (Cat #: 610467); Millipore—α5 integrin (Cat #: AB1928) and detected with HRP-conjugated goat anti-rabbit and sheep anti-mouse secondary antibodies (GE healthcare).

[2] = target: T1, α5 and β1 integrin subunits (Homo sapiens, UniProt P05556+P08648); assay: Duolink protein interaction analysis of α5 and β1 integrin in MEC monolayers; assay type: cell-based; conditions: 100 μM AXT107 compared to vehicle
T1 construct: host or cells: human dermal microvascular endothelial cells (MECs)
T1 sequence (P08648 42-894 limits assumed): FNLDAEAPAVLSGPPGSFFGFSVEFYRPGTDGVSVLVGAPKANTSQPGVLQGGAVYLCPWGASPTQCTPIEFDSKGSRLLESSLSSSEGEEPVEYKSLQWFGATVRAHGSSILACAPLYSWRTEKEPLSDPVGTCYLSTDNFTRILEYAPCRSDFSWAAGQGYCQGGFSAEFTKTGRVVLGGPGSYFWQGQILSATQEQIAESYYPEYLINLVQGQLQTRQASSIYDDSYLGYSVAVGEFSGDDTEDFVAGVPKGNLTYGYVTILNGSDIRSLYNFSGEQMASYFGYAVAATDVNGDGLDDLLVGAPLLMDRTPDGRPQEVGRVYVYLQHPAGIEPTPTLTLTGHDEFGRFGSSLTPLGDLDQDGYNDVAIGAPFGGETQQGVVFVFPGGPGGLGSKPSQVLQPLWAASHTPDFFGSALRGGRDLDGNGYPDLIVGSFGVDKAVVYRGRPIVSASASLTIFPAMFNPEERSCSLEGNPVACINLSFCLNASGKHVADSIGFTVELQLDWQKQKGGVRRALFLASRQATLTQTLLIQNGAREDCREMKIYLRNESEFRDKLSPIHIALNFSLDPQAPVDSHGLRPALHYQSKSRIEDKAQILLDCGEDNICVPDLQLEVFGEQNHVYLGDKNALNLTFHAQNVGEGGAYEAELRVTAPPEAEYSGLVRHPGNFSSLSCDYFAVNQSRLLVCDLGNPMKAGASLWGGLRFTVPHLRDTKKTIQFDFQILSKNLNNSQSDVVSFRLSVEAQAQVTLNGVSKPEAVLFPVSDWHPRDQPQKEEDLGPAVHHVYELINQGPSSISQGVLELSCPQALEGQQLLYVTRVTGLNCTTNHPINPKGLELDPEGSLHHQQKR
T1 sequence (P08648 895-1049 limits assumed): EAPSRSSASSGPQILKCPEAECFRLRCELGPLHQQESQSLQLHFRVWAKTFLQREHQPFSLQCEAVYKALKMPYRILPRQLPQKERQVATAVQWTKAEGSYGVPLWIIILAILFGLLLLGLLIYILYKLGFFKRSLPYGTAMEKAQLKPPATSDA
T1 sequence (P05556 21-798): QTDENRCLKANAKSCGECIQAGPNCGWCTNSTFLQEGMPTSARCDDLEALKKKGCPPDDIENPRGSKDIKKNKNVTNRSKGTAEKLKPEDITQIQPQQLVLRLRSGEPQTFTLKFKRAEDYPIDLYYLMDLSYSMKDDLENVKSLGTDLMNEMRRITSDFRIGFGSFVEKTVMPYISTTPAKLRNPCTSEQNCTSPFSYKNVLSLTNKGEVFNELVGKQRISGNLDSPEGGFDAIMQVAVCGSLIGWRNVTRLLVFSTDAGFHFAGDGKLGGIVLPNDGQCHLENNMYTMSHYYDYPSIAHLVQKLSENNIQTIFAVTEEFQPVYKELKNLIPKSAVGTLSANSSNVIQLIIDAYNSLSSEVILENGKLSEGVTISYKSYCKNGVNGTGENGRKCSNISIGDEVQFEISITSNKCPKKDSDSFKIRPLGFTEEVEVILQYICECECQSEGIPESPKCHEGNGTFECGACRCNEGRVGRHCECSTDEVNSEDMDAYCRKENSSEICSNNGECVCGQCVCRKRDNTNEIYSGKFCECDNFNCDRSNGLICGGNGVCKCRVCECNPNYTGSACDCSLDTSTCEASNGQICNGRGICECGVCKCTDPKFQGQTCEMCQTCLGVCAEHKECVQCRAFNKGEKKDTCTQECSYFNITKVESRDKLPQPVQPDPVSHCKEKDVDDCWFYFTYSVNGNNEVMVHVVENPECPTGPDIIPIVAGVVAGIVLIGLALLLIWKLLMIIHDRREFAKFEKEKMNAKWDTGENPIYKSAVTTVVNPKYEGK
Experimental: Additionally, changes in the interaction between the α5 and β1 subunits were further investigated using Duolink™ technology which can visualize individual interactions between α5 and β1 integrin subunits as distinct spots by fluorescence microscopy.
Glass bottom, 96-well plates were coated with FN1, seeded with MECs, as described above for the immunofluorescence experiments. After growing for forty-eight hours, cells were serum starved for three hours, treated with 100 μM AXT107 or DMSO vehicle for ninety minutes, washed twice with dPBS containing Ca^2+ and Mg^2+, and fixed in 10% neutral buffered formalin. Cells were blocked in 5% normal goat serum; 0.3% Triton X-100 in dPBS containing Ca^2+ and Mg^2+ for one hour and incubated overnight at 4° C. with rabbit anti-α5 integrin and mouse anti-β1 integrin antibodies in PBS containing Ca^2+ and Mg^2+ with 1% BSA and 0.1% Triton X-100. Interaction spots were developed using DUOLINK green detection reagent according to the manufacturer's instructions and detected using the BD pathway 855 system.

Akt = assay: Western blot of MEC lysates: Akt phosphorylation; assay type: cell-based, human; conditions: Ang2 and AXT107 treatment
Experimental: as §1, §2, §3

VE-cadherin = assay: Western blot of VE-Cadherin from MEC monolayers; assay type: cell-based, human; conditions: three hours of AXT107 and Ang2 treatment
Experimental: The jaggedness of these junctions is related to the structure of actin within the cell.
For Ang1/2 signaling investigations, cell culture dishes (10 cm diameter) were coated with 5 μg/ml fibronectin (FN1; Sigma-Aldrich, St. Louis, Mo.) for two hours at 37° C. The FN1 solution was then removed by aspiration and 5×10^6 microvascular endothelial cells (MECs; Lonza, Walkersville, Md.) were plated in EGM-2MV media (Lonza) and cultured for forty-eight hours at 37° C. The cells were then serum starved for sixteen hours in serum-free EGM-2 base media (Lonza). […] The cells were then transferred to ice, washed twice with ice cold Dulbecco's phosphate-buffered saline (dPBS) containing Ca^2+ and Mg^2+, and collected by scraping in 500 μl of 1× Blue Loading Buffer (Cell Signaling, Danvers, Mass.). […] Specific proteins were identified by Western blot, using the following primary antibodies: Cell Signaling—phospho-Tie2 (Y992) (Cat #: 4221), Tie2 (Cat #: 7403), phospho-Stat3 (Y705) (Cat #: 4113), Stat3 (Cat #: 4904), phospho-Akt (S473) (Cat #: 4058), Akt (Cat #: 9272), phospho-p44/42 MAPK (T202/Y204) (Cat #: 4370), p44/42 MAPK (Cat #: 4695); BD Transduction Laboratories—β1 integrin (Cat #: 610467); Millipore—α5 integrin (Cat #: AB1928) and detected with HRP-conjugated goat anti-rabbit and sheep anti-mouse secondary antibodies (GE healthcare).

[3] = Self-assembly of peptide in media; assay type: physicochemical; conditions: added to media
integrin αvβ3 = integrin αvβ3 (Homo sapiens, UniProt P05106+P06756); conditions: Lee et al. 2014; Lima et al. 2017; cited from earlier work
Chain of integrin αvβ3 (P06756 31-1048): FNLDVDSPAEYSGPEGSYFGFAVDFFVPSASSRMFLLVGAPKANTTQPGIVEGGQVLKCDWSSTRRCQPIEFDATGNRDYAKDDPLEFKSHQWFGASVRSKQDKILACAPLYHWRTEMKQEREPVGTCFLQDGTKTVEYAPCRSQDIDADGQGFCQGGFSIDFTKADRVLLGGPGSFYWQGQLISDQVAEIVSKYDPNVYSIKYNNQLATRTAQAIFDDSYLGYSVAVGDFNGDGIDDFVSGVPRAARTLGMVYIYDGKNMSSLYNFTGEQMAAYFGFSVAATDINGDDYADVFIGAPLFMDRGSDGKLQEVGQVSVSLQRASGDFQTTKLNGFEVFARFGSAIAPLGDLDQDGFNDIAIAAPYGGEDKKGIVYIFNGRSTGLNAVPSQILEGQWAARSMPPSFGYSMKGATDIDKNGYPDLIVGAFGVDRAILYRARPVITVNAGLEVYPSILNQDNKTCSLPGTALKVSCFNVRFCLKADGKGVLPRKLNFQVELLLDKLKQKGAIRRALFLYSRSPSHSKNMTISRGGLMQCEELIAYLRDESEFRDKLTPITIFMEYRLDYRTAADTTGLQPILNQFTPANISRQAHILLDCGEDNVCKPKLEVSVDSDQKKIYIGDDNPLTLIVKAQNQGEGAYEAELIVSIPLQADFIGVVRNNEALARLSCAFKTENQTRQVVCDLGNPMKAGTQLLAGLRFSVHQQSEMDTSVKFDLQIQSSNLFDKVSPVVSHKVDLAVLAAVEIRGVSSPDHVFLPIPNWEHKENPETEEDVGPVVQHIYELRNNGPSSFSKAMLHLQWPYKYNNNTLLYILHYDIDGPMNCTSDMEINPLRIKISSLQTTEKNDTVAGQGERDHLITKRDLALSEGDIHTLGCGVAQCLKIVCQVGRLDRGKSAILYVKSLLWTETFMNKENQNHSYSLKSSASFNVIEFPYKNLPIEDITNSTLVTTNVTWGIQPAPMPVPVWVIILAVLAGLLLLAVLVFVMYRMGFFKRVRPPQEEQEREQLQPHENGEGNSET
Chain of integrin αvβ3 (P05106 27-788): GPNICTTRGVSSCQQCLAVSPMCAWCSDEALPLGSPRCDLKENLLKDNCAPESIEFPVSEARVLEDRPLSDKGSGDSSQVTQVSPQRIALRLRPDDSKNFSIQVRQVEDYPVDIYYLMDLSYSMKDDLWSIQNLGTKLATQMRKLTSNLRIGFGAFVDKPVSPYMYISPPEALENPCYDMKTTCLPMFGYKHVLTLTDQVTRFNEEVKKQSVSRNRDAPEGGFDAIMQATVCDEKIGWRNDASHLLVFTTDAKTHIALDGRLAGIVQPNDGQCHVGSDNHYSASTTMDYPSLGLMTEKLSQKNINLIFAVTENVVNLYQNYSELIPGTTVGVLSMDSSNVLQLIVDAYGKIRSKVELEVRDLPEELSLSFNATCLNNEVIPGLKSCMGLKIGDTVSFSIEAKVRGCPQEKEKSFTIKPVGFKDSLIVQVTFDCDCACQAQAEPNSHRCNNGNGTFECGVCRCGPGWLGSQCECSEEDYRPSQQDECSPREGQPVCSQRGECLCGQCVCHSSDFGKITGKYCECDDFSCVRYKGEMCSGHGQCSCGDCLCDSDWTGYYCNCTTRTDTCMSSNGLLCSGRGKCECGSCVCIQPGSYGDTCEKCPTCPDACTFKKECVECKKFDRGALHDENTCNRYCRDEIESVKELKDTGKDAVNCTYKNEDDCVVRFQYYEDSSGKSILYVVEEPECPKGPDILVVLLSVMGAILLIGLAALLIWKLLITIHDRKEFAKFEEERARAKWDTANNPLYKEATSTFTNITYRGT

Tie2 = Tie2 activation in vivo, retinopathy of prematurity (ROP) mouse model
Source text: To investigate the effects of AXT107 on Tie2 activation in vivo, retinopathy of prematurity (ROP) mouse model was used. In this system, P7 pups are placed in 75% O2 for five days, resulting in a loss of retinal capillary density from hyperoxia and a rapid induction of neovascularization upon the pup's return to normoxic conditions. […] Increased levels of Ang2 in the vitreous contribute to vessel leakage and macular edema in various retinopathies.

LRRFSTAPFAFIDINDVINF [AXT107]
Receptor phosphorylation and downstream signals of RTKs [1]: significantly decreases receptor phosphorylation and downstream signals | Erk1/2 phosphorylation (Erk1/2): remained constant in all tested conditions | Interactions between α5 and β1 integrin subunits (Duolink) [2]: significantly reduced | Akt phosphorylation (Akt): also increased | Total level of VE-cadherin (VE-cadherin): remained unchanged | Self-assembly in media [3]: self-assemble into peptide complexes when added to media | Binding to integrin αvβ3 (integrin αvβ3): binds tightly | Activation of Tie2 by Ang2 in vivo (Tie2): potentiates the activation of Tie2 by Ang2 both in vitro and in vivo
